Activity calls are given as the source filed them. No cut-off for these calls is given here.
Target: Histone deacetylase (Homo sapiens) (UniProt Q13547+O15379+Q9UBN7+Q92769+Q9UQL6+Q8WUI4+Q9BY41+Q96DB2+P56524+Q9UKV0+Q969S8)
Assay: Inhibition of HDAC at <1 uM
Assay type: protein assay

| Compound | Activity |
| --- | --- |
| O=C(CCCCCCNc1c(O)c(=O)c1=O)Nc1ccccc1 | inactive |
| O=C(CCCCCCC1=N[C@@H](COCc2ccccc2)CO1)Nc1ccccc1 | inactive |
| CSc1c(NCCCCC(=O)Nc2ccccc2)c(=O)c1=O | inactive |
| O=C(CCCC/N=c1/c(S)c(O)c1=O)Nc1ccccc1 | inactive |
| O=C(CCCCCCC1=N[C@@H](CO)CO1)Nc1ccccc1 | inactive |
| O=C(CCCCC/N=c1/c(S)c(O)c1=O)Nc1ccccc1 | inactive |
| COc1ccc(COC(CCCCCNC(=O)NO)C(=O)Nc2ccccc2)cc1 (stereo not drawn) | inactive |
| CSc1c(NCCCCCC(=O)Nc2ccccc2)c(=O)c1=O | inactive |
| O=C(CCCCNc1c(O)c(=O)c1=O)Nc1ccccc1 | inactive |

Results, then the compound that gave them:

| Activity | Compound |
| --- | --- |
| inactive | O=C(CCCCCC/N=c1/c(S)c(O)c1=O)Nc1ccccc1 |
| inactive | CSc1c(NCCCCCCC(=O)Nc2ccccc2)c(=O)c1=O |
| inactive | O=C(CCCCCNc1c(O)c(=O)c1=O)Nc1ccccc1 |
| inactive | CN(O)c1c(SCCCCC(=O)Nc2ccccc2)c(=O)c1=O |

Reference: ChEMBL document CHEMBL1149353, “Exploring alternative Zn-binding groups in the design of HDAC inhibitors: squaric acid, N-hydroxyurea, and oxazoline analogues of SAHA” (Bioorg Med Chem Lett, 2006)
